For test [1], the system named is F1 male hybrid (129×C57) mice. Put plainly: Midshaft femur cortical thickness by microCT in treated mice. It counts as in vivo. Particulars: for increase in midshaft femur cortical thickness: second study. On the procedure: The compound was administered in the animals' diet. Four groups of mice were used: control (N=12); 25 mg/kg compound (N=9); 83 mg/kg compound (N=9); and an additional group wherein Li2CO3 was administered in the diet (0.1%) (N=9).
Midshaft femur cortical thickness was measured using a Scanco μCT40. […] For the Li2CO3 group, a decrease in cortical bone thickness of 2% (p=0.90) was observed. […]
Midshaft femur cortical thickness was measured by microCT (Scanco μCT40). […]

The target in test [2] is T1, human notum pectinacetyltransferase (Homo sapiens, UniProt Q6P988).
T1 construct: made in house; conditioned medium used
T1 sequence (Q6P988 20-496): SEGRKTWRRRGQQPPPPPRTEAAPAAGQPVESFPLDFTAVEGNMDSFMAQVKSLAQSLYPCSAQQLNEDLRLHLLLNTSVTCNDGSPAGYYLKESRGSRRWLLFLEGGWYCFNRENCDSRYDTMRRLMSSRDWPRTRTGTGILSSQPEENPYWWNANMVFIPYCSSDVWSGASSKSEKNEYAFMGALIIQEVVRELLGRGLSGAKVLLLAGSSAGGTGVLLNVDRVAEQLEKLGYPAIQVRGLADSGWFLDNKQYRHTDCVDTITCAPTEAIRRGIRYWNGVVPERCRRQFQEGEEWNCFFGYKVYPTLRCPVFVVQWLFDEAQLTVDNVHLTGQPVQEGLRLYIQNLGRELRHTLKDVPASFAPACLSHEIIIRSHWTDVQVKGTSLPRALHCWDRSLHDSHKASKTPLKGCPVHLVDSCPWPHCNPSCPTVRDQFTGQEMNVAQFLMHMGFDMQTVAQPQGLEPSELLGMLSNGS
Put plainly: Binding assay (OPTS esterase substrate, fluorimetric). It counts as biochemical. Particulars: OPTS substrate 5 μM. Here is the method: Plasmid containing human notum pectinacetyltransferase in pcDNA3.1(+) vector was transfected into HEK293 cells and clones were selecting by growing in presence of 400 ug/mL of G418. Condition media from these cells was used for the assay.

The target of test [3] is T1, human notum pectinacetyltransferase. Kind of test: Reporter assay (CellSensor LEF/TCF-bla FreeStyle 293F cells, Wnt3a and notum conditioned media). The class given is cell-based. On the procedure:
Plasmid containing human notum pectinacetyltransferase in pcDNA3.1(+) vector was transfected into HEK293 cells and clones were selecting by growing in presence of 400 ug/mL of G418. […] L cells overexpressing and secreting Wnt3a into the conditioned media were purchased from ATCC.
The assay protocol was as follows. […] The cell growth medium consisted of DMEM with 10% Dialyzed FBS, 5 μg/ml Blasticidin (Invitrogen, R210-01), 0.1 mM NEAA, 25 mM HEPES and 1×GPS. Cells were then trypsinized by first rinsing with PBS, followed by addition of 5 mL of trypsin and incubation of plates at room temperature for two minutes. A total of 10 mL of assay media (Opti-MEM, plus 0.5% dialyzed FBS, 0.1 mM NEAA, 1 mM sodium pyruvate, 10 mM HEPES, 1×GPS) was then added per 15 cm plate. Cells were counted and suspended at 0.75 million cells per mL. […] After incubation of cells at 37° C. for 3 hours, 10 μL of 30 mM LiCl in assay medium was added per well, followed by incubation at 37° C. for another 3 hours. […] Ten μL of the Wnt3a/notum pentinacetyltransferase mixture was then transferred from Greiner plates to each well of the 384-well plates containing the CellSensor cells. After incubation of cells overnight at 37° C., reactions were developed by addition of […] of 1×CCF4 (Invitrogen, Catalogue number K1085) to each well, covering the entire 384-well plate, and gentle rocking in the dark at room temperature for 3 hours.
For orientation: In a reporter assay the amount or activity of a reporter protein is the signal.

The test system of test [4] is Fischer 344 ovariectomized rats. Put plainly: Midshaft femur and tibia cortical thickness by microCT in sham and ovariectomized rats. The class given is in vivo. Particulars: target dose 30 mg/kg in diet, five weeks, ANOVA p=0.05 for treatment. The source says:
The pharmacology of 2-((5-chloro-6-methylthieno[2,3-d]pyrimidin-4-yl)thio)acetic acid was studied in Fischer 344 ovariectomized rats. The rats underwent ovariectomies or sham surgery at 43 or 46 weeks of age, and treatment with the compound started at 37 or 40 weeks thereafter, at 83 weeks of age.
Four treatment groups were used: sham-surgery given control diet (N=14); sham-surgery given compound (N=12); OVX-surgery given control diet (N=14); and OVX-surgery given compound (N=12). The compound was dosed by incorporating it into the rats' diet: 0.46 grams of compound per kg of diet. The target dose was 30 mg/kg. Dosing occurred for five weeks.
Bone mass and architecture was determined by microCT, using a Scanco μCT40. […] The difference between the cortical bone thicknesses of the sham control and OVX control was −13%. Two-factor ANOVA values were: p<0.001 for OVX surgery; p=0.05 for treatment; and p=0.65 for interaction.
Two-factor ANOVA values were: p=0.79 for OVX surgery; p=0.05 for treatment; and p=0.52 for interaction.

As for `Cc1sc2ncnc(SCC(=O)O)c2c1C` [2-((5,6-dimethylthieno[2,3-d]pyrimidin-4-yl)thio)acetic acid], the “increase in cortical bone thickness (midshaft femur) compared to control” value (“increase in cortical bone thickness” for short) in test [1] (first study, 25 mg/kg in diet, 25 days, starting at 10.7 weeks of age, p=0.04) was found to be 9%; in test [1] (first study, 83 mg/kg in diet, 25 days, starting at 10.7 weeks of age, p=0.07), 8%. Also, the “increase in midshaft femur cortical thickness” value in test [1] (8 mg/kg in diet, 25 days, starting at 10.7 weeks of age, p=0.19) came to 4%; in test [1] (24 mg/kg in diet, 25 days, starting at 10.7 weeks of age, p=0.05), 6%.

As usually defined, the IC50 is the concentration that inhibits the measured activity by half. Read a low IC50 as greater potency in that assay. In general, EC50 refers to the midpoint of the concentration-response curve. A low value points to an effect from little substance. `CC(C)c1sc2ncnc(SCC(=O)O)c2c1Cl` [2-((5-chloro-6-isopropylthieno[2,3-d]pyrimidin-4-yl)thio)acetic acid]: the IC50 in test [2] is under 25 nM. Besides, the EC50 in test [3] is under 1000 nM. Also, the “increase in cortical bone thickness” value is recorded as 6% in test [1] (5 mg/kg twice daily oral gavage, 25 days, starting at 8.7 weeks of age, p=0.002); 5% in test [1] (10 mg/kg twice daily oral gavage, 25 days, starting at 8.7 weeks of age, p=0.007); 6% in test [1] (15 mg/kg twice daily oral gavage, 25 days, starting at 8.7 weeks of age, p=0.001).

On to `Cc1sc2ncnc(SCC(=O)O)c2c1Cl` [2-((5-chloro-6-methylthieno[2,3-d]pyrimidin-4-yl)thio)acetic acid], for which the entries for the “increase in midshaft femur cortical bone thickness” value in test [4] (intact (sham) rats) and in test [4] (ovariectomized rats) were 3% and 5%, respectively. Moreover, the “increase in midshaft tibia cortical thickness” value in test [4] (intact (sham) rats) worked out at 2%; in test [4] (ovariectomized rats), 5%. Also, the 50% inhibitory concentration (IC50) in test [2] is under 25 nM. This molecule also had a concentration giving a half-maximal response (EC50) in test [3] of under 1000 nM.

Regarding `O=C(O)CSc1ncnc2c(C3CC3)c(Cl)sc12` [2-((6-chloro-7-cyclopropylthieno[3,2-d]pyrimidin-4-yl)thio)acetic acid], the “increase in cortical bone thickness” value in test [1] (3 mg/kg daily oral gavage, 25 days, starting at 8.7 weeks of age, p=0.003) amounted to 7%; in test [1] (10 mg/kg daily oral gavage, 25 days, starting at 8.7 weeks of age, p<0.001) it was 10%; in test [1] (30 mg/kg daily oral gavage, 25 days, starting at 8.7 weeks of age, p<0.001), 13%.

In the case of `Cc1c(Cl)sc2c(SCC(=O)O)ncnc12` [2-((6-chloro-7-methylthieno[3,2-d]pyrimidin-4-yl)thio)acetic acid], the IC50 in test [2] was under 25 nM. Also, the EC50 in test [3] was under 1000 nM. The “increase in midshaft femur cortical bone thickness compared to control” value came out at 6% in test [1] (first experiment, 10 mg/kg daily oral gavage, 25 days, starting at 54 weeks of age, p=0.06); 7% in test [1] (first experiment, 100 mg/kg daily oral gavage, 25 days, starting at 54 weeks of age, p=0.03); 10% in test [1] (second experiment, 34 mg/kg in diet, 18 days, starting at 8.1 weeks of age, p<0.01); 6% in test [1] (second experiment, 34 mg/kg in diet, seven days, starting at 8.1 weeks of age, p=0.13).

As to `O=C([O-])[O-].[Li+].[Li+]` [Li2CO3, reference compound], the “decrease in cortical bone thickness (midshaft femur) compared to control” value in test [1] (first study, 0.1% in diet, 25 days, p=0.90) worked out at 2%.
